According to PubChem BioAssay AID330 (DTP/NCI, 2004):
Several values for one entry are separate records, joined by “and”; a condition that tells them apart may be missing. Equal values may be shown once. Inconclusive results and toxic doses are left out. How the source made its calls: active means survival T/C of 150% or more; inactive means T/C below 125% in these data.

System: P388 leukemia ip, CD2F1 mice, survival T/C
Experiment: NCI In Vivo Anticancer Drug Screen. Data for tumor model P388 Leukemia (intraperitoneal) in CD2F1 (CDF1) mice
Details: endpoint: median survival time, higher = longer survival
Outline: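 Mice carrying the transplanted tumor received test compound or vehicle. Survival was recorded in each group, and the value is the treated-group measurement divided by that of the vehicle-treated control group.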

[1] = dose: 50.0 mg/kg/injection, schedule: Q01DX009 (ip), vehicle: saline
[2] = dose: 100.0 mg/kg/injection, schedule: Q01DX009 (ip), vehicle: saline
[3] = dose: 200.0 mg/kg/injection, schedule: Q01DX009 (ip), vehicle: saline
[4] = dose: 60.0 mg/kg/injection, schedule: Q01DX005 (ip), vehicle: saline with Tween-80
[5] = dose: 120.0 mg/kg/injection, schedule: Q01DX005 (ip), vehicle: saline with Tween-80
[6] = dose: 240.0 mg/kg/injection, schedule: Q01DX005 (ip), vehicle: saline with Tween-80
[7] = dose: 50.0 mg/kg/injection, schedule: Q01DX009 (ip), vehicle: Klucel (hydroxypropylcellulose) (HPC)
[8] = dose: 100.0 mg/kg/injection, schedule: Q01DX009 (ip), vehicle: Klucel (hydroxypropylcellulose) (HPC)
[9] = dose: 200.0 mg/kg/injection, schedule: Q01DX009 (ip), vehicle: Klucel (hydroxypropylcellulose) (HPC)
[10] = dose: 50.0 mg/kg/injection, schedule: Q01DX005 (ip), vehicle: Klucel (hydroxypropylcellulose) (HPC)
[11] = dose: 100.0 mg/kg/injection, schedule: Q01DX005 (ip), vehicle: Klucel (hydroxypropylcellulose) (HPC)

Measured: T/C

O=C(NC1CCCCC1)ON1C(=O)C2C3C=CC(C3)C2C1=O (stereo not drawn)
inactive: dose: 3.12 mg/kg/injection, schedule: Q01DX009 (ip), vehicle: saline with Tween-80 101 % of control and 98 % of control | dose: 6.25 mg/kg/injection, schedule: Q01DX009 (ip), vehicle: saline with Tween-80 106 % of control and 110 % of control and 113 % of control | dose: 12.5 mg/kg/injection, schedule: Q01DX009 (ip), vehicle: saline with Tween-80 106 % of control and 110 % of control | dose: 25.0 mg/kg/injection, schedule: Q01DX009 (ip), vehicle: saline with Tween-80 113 % of control and 117 % of control and 98 % of control | dose: 50.0 mg/kg/injection, schedule: Q01DX009 (ip), vehicle: saline with Tween-80 119 % of control

COc1ccc(C2CC(=O)N(c3nc(C)cc(C)n3)C(=O)C2)cc1
inactive: dose: 100.0 mg/kg/injection, schedule: Q04DX003 (ip), vehicle: saline 96 % of control | dose: 200.0 mg/kg/injection, schedule: Q04DX003 (ip), vehicle: saline 102 % of control | dose: 400.0 mg/kg/injection, schedule: Q04DX003 (ip), vehicle: saline 100 % of control

Cn1c([N+](=O)[O-])cnc1/C=[N+](\[O-])CCO
inactive: [1] 100 % of control | [2] 100 % of control | [3] 102 % of control

N/C(=N\C(=O)OCc1ccccc1)N(CCCC(NC(=O)OCc1ccccc1)C(=O)O)C(=O)OCc1ccccc1 (stereo not drawn)
inactive: [4] 104 % of control | [5] 87 % of control | [6] 88 % of control

CC1CCC2C(OC(=O)C23CO3)C2(C)C(=O)C=CC12 (stereo not drawn)
inactive: dose: 2.5 mg/kg/injection, schedule: Q01DX009 (ip), vehicle: saline + alcohol 86 % of control | dose: 5.0 mg/kg/injection, schedule: Q01DX009 (ip), vehicle: saline + alcohol 100 % of control | dose: 10.0 mg/kg/injection, schedule: Q01DX009 (ip), vehicle: saline + alcohol 101 % of control | dose: 20.0 mg/kg/injection, schedule: Q01DX009 (ip), vehicle: saline + alcohol 99 % of control

O=C(c1ccccc1)N1OCCCc2ccccc21
inactive: [4] 104 % of control | [5] 96 % of control | [6] 91 % of control

COc1ccc(NC(=S)Nc2ccc(S(=O)(=O)N3CCCCC3)cc2)cc1
inactive: [7] 94 % of control | [8] 94 % of control and 95 % of control | [9] 98 % of control

COc1cc(C2C(C#N)=CNc3nc(N)nc(N)c32)cc(OC)c1OC (stereo not drawn)
inactive: [4] 120 % of control

O=C1OC(=O)C2CC3OC3CC12 (stereo not drawn)
inactive: dose: 12.5 mg/kg/injection, schedule: Q01DX001 (ip), vehicle: saline 104 % of control | dose: 25.0 mg/kg/injection, schedule: Q01DX001 (ip), vehicle: saline 109 % of control | dose: 50.0 mg/kg/injection, schedule: Q01DX001 (ip), vehicle: saline 100 % of control

CN(C(=S=O)c1ccccc1)c1ccccc1
inactive: [1] 109 % of control | [2] 104 % of control | [3] 106 % of control

COc1cc(C2(c3ccc(O)c(OC)c3)CCCCC2)ccc1O
inactive: [7] 100 % of control | [8] 100 % of control | [9] 100 % of control

CC1=Nc2c(C)noc2CC(c2ccccc2O)C1 (stereo not drawn)
inactive: [10] 101 % of control | [11] 106 % of control

CC1=CC(C)(C(Cl)(Cl)Cl)C(C)=CC1=O (stereo not drawn)
inactive: [10] 98 % of control | [11] 99 % of control | dose: 200.0 mg/kg/injection, schedule: Q01DX005 (ip), vehicle: Klucel (hydroxypropylcellulose) (HPC) 101 % of control

CN(C)CCC(=O)C1CC1
inactive: dose: 12.5 mg/kg/injection, schedule: Q01DX005 (ip), vehicle: suspension in saline 94 % of control | dose: 25.0 mg/kg/injection, schedule: Q01DX005 (ip), vehicle: suspension in saline 97 % of control | dose: 50.0 mg/kg/injection, schedule: Q01DX005 (ip), vehicle: saline with Tween-80 92 % of control | dose: 50.0 mg/kg/injection, schedule: Q01DX005 (ip), vehicle: suspension in saline 100 % of control
